Four sequences from patent US20070128217A1 (priority 2003, published 2007) can be followed below.

The subject of test [1] is rabbit serum obtained by immunizing a rabbit with the SARS-CoV strain Frankfurt 1. Format: binding. Details: Binding of a rabbit serum to linear peptides / Binding of a rabbit serum to looped peptides / Rabbit serum linear peptides / Rabbit serum looped peptides / Binding of a rabbit serum to linear peptides of protein N of SARS-CoV Urbani (Rabbit serum linear peptides) / Binding of a rabbit serum to looped/cyclic peptides of protein N of SARS-CoV Urbani (Rabbit serum looped peptides): unit not given here.

Test [2] relates to control sera (pooled serum of ten healthy LUMC hospital workers; commercial negative donor pooled serum from the Dutch bloodbank). Format: binding, human. Details: Binding of Control serum LUMC to linear peptides / Binding of Control serum Blood-bank to linear peptides / Binding of Control serum LUMC to looped peptides / Binding of Control Serum Blood-Bank to Looped peptides / Binding of Control serum LUMC to linear peptides of the protein M of SARS-CoV Urbani / Binding of Control serum Blood-bank to linear peptides of the protein M of SARS-CoV Urbani / Binding of Control serum LUMC to looped peptides of the protein M of SARS-CoV Urbani / Binding of Control Serum Blood-Bank to Looped peptides of the protein M of SARS-CoV Urbani: unit not given here.

Test [3] deals with antibodies in sera from SARS patients (sera 1a, 1b, 2, 6, 37, 62, London, SARS-yellow, SARS-green). Format: binding, human. Details: Binding of serum 6 to linear peptides of protein X1 of SARS-CoV Urbani / Binding of serum 37 to linear peptides of protein X1 of SARS-CoV Urbani / Binding of serum 6 to looped/cyclic peptide (PEPSCAN-ELISA) / Binding of serum 37 to looped/cyclic peptide (PEPSCAN-ELISA) / Binding of serum 37 to looped/cyclic peptides of protein X1 of SARS-CoV Urbani / Binding of serum 6 to linear peptides of protein X2 / Binding of serum 37 to linear peptides of protein X2 / Binding of serum 37 to looped/cyclic peptides of protein X2 of SARS-CoV Urbani / Binding of serum 6 to linear peptides of protein M of SARS-CoV Urbani / Binding of serum 37 to linear peptides of protein M of SARS-CoV Urbani / Binding of serum 6 to looped/cyclic peptides of protein M of SARS-CoV Urbani / Binding of serum 37 to looped/cyclic peptides of protein M of SARS-CoV Urbani / Binding of serum 6 to linear peptides of protein X3 of SARS-CoV Urbani / Binding of serum 37 to linear peptides of protein X3 of SARS-CoV Urbani / Binding of serum 37 to looped/cyclic peptides of protein X3 of SARS-CoV Urbani / Binding of serum 6 to linear peptides of protein X4 of SARS-CoV Urbani / Binding of serum 37 to linear peptides of protein X4 of SARS-CoV Urbani / Binding of serum 37 to looped/cyclic peptides of protein X4 of SARS-CoV Urbani / Binding of serum 6 to linear peptides of protein X5 of SARS-CoV Urbani / Binding of serum 37 to linear peptides of protein X5 of SARS-CoV Urbani / Binding of serum 37 to looped/cyclic peptides of protein X5 of SARS-CoV Urbani / Binding of serum 6 to linear peptides of protein N of SARS-CoV Urbani / Binding of serum 37 to linear peptides of protein N of SARS-CoV Urbani / Binding of serum 6 to linear peptide (PEPSCAN-ELISA) / Binding of serum 1a to looped/cyclic peptides of protein N of SARS-CoV Urbani / Binding of serum 1b to looped/cyclic peptides of protein N of SARS-CoV Urbani / Binding of serum 2 to looped/cyclic peptides of protein N of SARS-CoV Urbani / Binding of serum 6 to looped/cyclic peptides of protein N of SARS-CoV Urbani / Binding of serum 37 to looped/cyclic peptides of protein N of SARS-CoV Urbani / Binding of serum 62 to looped/cyclic peptides of protein N of SARS-CoV Urbani / Binding of serum London to looped/cyclic peptides of protein N of SARS-CoV Urbani / Binding of serum SARS-green to looped/cyclic peptides of protein N of SARS-CoV Urbani: unit not given here.

Regarding YFLQCINACRIIMRC, in test [1], the “Binding of a rabbit serum to linear peptides” value is 0.1 and the “Binding of a rabbit serum to looped peptides” value was determined as 0.8. For the same sequence, in test [2], the “Binding of Control Serum Blood-Bank to Looped peptides” value is 0.6, the “Binding of Control serum Blood-bank to linear peptides” value was 0.8, the “Binding of Control serum LUMC to linear peptides” value worked out at 0.7 and the “Binding of Control serum LUMC to looped peptides” value was 0.6. Further, in test [3], the “Binding of serum 1a to linear peptides of protein X1 of SARS-CoV Urbani” value is 0.7, the “Binding of serum 1a to looped/cyclic peptide (PEPSCAN-ELISA)” value is 0.6, the “Binding of serum 1b to linear peptides of protein X1 of SARS-CoV Urbani” value amounted to 0.6 and the “Binding of serum 1b to looped/cyclic peptide (PEPSCAN-ELISA)” value is 0.4. In test [3], the “Binding of serum 2 to linear peptides of protein X1 of SARS-CoV Urbani” value is 0.5, the “Binding of serum 2 to looped/cyclic peptide (PEPSCAN-ELISA)” value is reported as 0.4, the “Binding of serum 6 to linear peptides of protein X1 of SARS-CoV Urbani” value was determined as 0.5 and the “Binding of serum 6 to looped/cyclic peptide (PEPSCAN-ELISA)” value was found to be 1.6. In test [3], the “Binding of serum 37 to linear peptides of protein X1 of SARS-CoV Urbani” value is 0.6, the “Binding of serum 37 to looped/cyclic peptide (PEPSCAN-ELISA)” value was 0.5, the “Binding of serum 62 to linear peptides of protein X1 of SARS-CoV Urbani” value is reported as 0.6 and the “Binding of serum 62 to looped/cyclic peptide (PEPSCAN-ELISA)” value was determined as 0.6. In test [3], the “Binding of serum London to linear peptides of protein X1 of SARS-CoV Urbani” value was determined as 0.2, the “Binding of serum London to looped/cyclic peptide (PEPSCAN-ELISA)” value was found to be 1.6, the “Binding of serum SARS-green to linear peptides of protein X1 of SARS-CoV Urbani” value was 0.3 and the “Binding of serum SARS-green to looped/cyclic peptide (PEPSCAN-ELISA)” value came out at 0.2. Also, in test [3], the “Binding of serum SARS-yellow to linear peptides of protein X1 of SARS-CoV Urbani” value is listed as 0.3 and the “Binding of serum SARS-yellow to looped/cyclic peptide (PEPSCAN-ELISA)” value amounted to 0.6.
Turning to YFTEVYYQLESTQIT, in test [1], the “Binding of a rabbit serum to linear peptides” value is 0.1 and the “Binding of a rabbit serum to looped peptides” value was found to be 0.4. Besides, in test [2], the “Binding of Control Serum Blood-Bank to Looped peptides” value is listed as 0.4, the “Binding of Control serum Blood-bank to linear peptides” value is reported as 0.4, the “Binding of Control serum LUMC to linear peptides” value is 0.4 and the “Binding of Control serum LUMC to looped peptides” value turned out to be 0.5. Moreover, in test [3], the “Binding of serum 1a to linear peptides of protein X1 of SARS-CoV Urbani” value worked out at 0.7, the “Binding of serum 1a to looped/cyclic peptides of protein X1 of SARS-CoV Urbani” value is on record as 0.5, the “Binding of serum 1b to linear peptides of protein X1 of SARS-CoV Urbani” value was 0.6 and the “Binding of serum 1b to looped/cyclic peptides of protein X1 of SARS-CoV Urbani” value is reported as 0.5. Moreover, in test [3], the “Binding of serum 2 to linear peptides of protein X1 of SARS-CoV Urbani” value was found to be 0.4, the “Binding of serum 2 to looped/cyclic peptides of protein X1 of SARS-CoV Urbani” value came to 0.3, the “Binding of serum 6 to linear peptides of protein X1 of SARS-CoV Urbani” value was determined as 0.4 and the “Binding of serum 6 to looped/cyclic peptides of protein X1 of SARS-CoV Urbani” value was determined as 0.2. In test [3], the “Binding of serum 37 to linear peptides of protein X1 of SARS-CoV Urbani” value was 0.6, the “Binding of serum 37 to looped/cyclic peptides of protein X1 of SARS-CoV Urbani” value is on record as 0.4, the “Binding of serum 62 to linear peptides of protein X1 of SARS-CoV Urbani” value turned out to be 0.6 and the “Binding of serum 62 to looped/cyclic peptides of protein X1 of SARS-CoV Urbani” value is given as 0.4. For the same sequence, in test [3], the “Binding of serum London to linear peptides of protein X1 of SARS-CoV Urbani” value was determined as 0.3, the “Binding of serum London to looped/cyclic peptides of protein X1 of SARS-CoV Urbani” value is listed as 0.2, the “Binding of serum SARS-green to linear peptides of protein X1 of SARS-CoV Urbani” value turned out to be 0.3 and the “Binding of serum SARS-green to looped/cyclic peptides of protein X1 of SARS-CoV Urbani” value is given as 0.2. Besides, in test [3], the “Binding of serum SARS-yellow to linear peptides of protein X1 of SARS-CoV Urbani” value is 0.3 and the “Binding of serum SARS-yellow to looped/cyclic peptides of protein X1 of SARS-CoV Urbani” value stood at 0.3.
For the sequence YIIKLVFLWLLWPVT, in test [1], the “Rabbit serum linear peptides” value turned out to be 0.4 and the “Rabbit serum looped peptides” value came out at 0.2. Besides, in test [2], the “Binding of Control Serum Blood-Bank to Looped peptides of the protein M of SARS-CoV Urbani” value was 0.8, the “Binding of Control serum Blood-bank to linear peptides of the protein M of SARS-CoV Urbani” value came to 0.8, the “Binding of Control serum LUMC to linear peptides of the protein M of SARS-CoV Urbani” value turned out to be 0.5 and the “Binding of Control serum LUMC to looped peptides of the protein M of SARS-CoV Urbani” value is reported as 0.8. Also, in test [3], the “Binding of serum 1a to linear peptides of protein M of SARS-CoV Urbani” value stood at 0.8, the “Binding of serum 1a to looped/cyclic peptides of protein M of SARS-CoV Urbani” value came to 0.8, the “Binding of serum 1b to linear peptides of protein M of SARS-CoV Urbani” value is 0.6 and the “Binding of serum 1b to looped/cyclic peptides of protein M of SARS-CoV Urbani” value is 0.8. Further, in test [3], the “Binding of serum 2 to linear peptides of protein M of SARS-CoV Urbani” value worked out at 0.9, the “Binding of serum 2 to looped/cyclic peptides of protein M of SARS-CoV Urbani” value is 0.6, the “Binding of serum 6 to linear peptides of protein M of SARS-CoV Urbani” value came out at 0.4 and the “Binding of serum 6 to looped/cyclic peptides of protein M of SARS-CoV Urbani” value was 0.8. In addition, in test [3], the “Binding of serum 37 to linear peptides of protein M of SARS-CoV Urbani” value was found to be 0.7, the “Binding of serum 37 to looped/cyclic peptides of protein M of SARS-CoV Urbani” value is 0.7, the “Binding of serum 62 to linear peptides of protein M of SARS-CoV Urbani” value stood at 0.8 and the “Binding of serum 62 to looped/cyclic peptides of protein M of SARS-CoV Urbani” value is listed as 0.7. Besides, in test [3], the “Binding of serum London to linear peptides of protein M of SARS-CoV Urbani” value worked out at 0.3, the “Binding of serum London to looped/cyclic peptides of protein M of SARS-CoV Urbani” value stood at 0.3, the “Binding of serum SARS-green to linear peptides of protein M of SARS-CoV Urbani” value was found to be 0.4 and the “Binding of serum SARS-green to looped/cyclic peptides of protein M of SARS-CoV Urbani” value is 0.4. Also, in test [3], the “Binding of serum SARS-yellow to linear peptides of protein M of SARS-CoV Urbani” value was determined as 0.1 and the “Binding of serum SARS-yellow to looped/cyclic peptides of protein M of SARS-CoV Urbani” value is recorded as 0.5.
On to YNTRGNTYSTAWLCA, for which, in test [1], the “Rabbit serum linear peptides” value turned out to be 0.7 and the “Rabbit serum looped peptides” value was found to be 0.0. For the same sequence, in test [2], the “Binding of Control Serum Blood-Bank to Looped peptides” value worked out at 0.5, the “Binding of Control serum Blood-bank to linear peptides” value stood at 0.7, the “Binding of Control serum LUMC to linear peptides” value is on record as 0.6 and the “Binding of Control serum LUMC to looped peptides” value amounted to 0.5. Further, in test [3], the “Binding of serum 1a to linear peptides of protein X5 of SARS-CoV Urbani” value amounted to 0.8, the “Binding of serum 1a to looped/cyclic peptides of protein X5 of SARS-CoV Urbani” value stood at 0.3, the “Binding of serum 1b to linear peptides of protein X5 of SARS-CoV Urbani” value turned out to be 0.6 and the “Binding of serum 1b to looped/cyclic peptides of protein X5 of SARS-CoV Urbani” value worked out at 0.2. Moreover, in test [3], the “Binding of serum 2 to linear peptides of protein X5 of SARS-CoV Urbani” value is listed as 0.6, the “Binding of serum 2 to looped/cyclic peptides of protein X5 of SARS-CoV Urbani” value is given as 0.4, the “Binding of serum 6 to linear peptides of protein X5 of SARS-CoV Urbani” value is 0.8 and the “Binding of serum 6 to looped/cyclic peptides of protein X5 of SARS-CoV Urbani” value is reported as 0.4. In test [3], the “Binding of serum 37 to linear peptides of protein X5 of SARS-CoV Urbani” value is on record as 0.7, the “Binding of serum 37 to looped/cyclic peptides of protein X5 of SARS-CoV Urbani” value was 0.0, the “Binding of serum 62 to linear peptides of protein X5 of SARS-CoV Urbani” value amounted to 0.7 and the “Binding of serum 62 to looped/cyclic peptides of protein X5 of SARS-CoV Urbani” value was 0.2. In test [3], the “Binding of serum London to linear peptides of protein X5 of SARS-CoV Urbani” value turned out to be 0.8, the “Binding of serum London to looped/cyclic peptides of protein X5 of SARS-CoV Urbani” value came out at 0.2, the “Binding of serum SARS-green to linear peptides of protein X5 of SARS-CoV Urbani” value came to 0.7 and the “Binding of serum SARS-green to looped/cyclic peptides of protein X5 of SARS-CoV Urbani” value is given as 0.2. Further, in test [3], the “Binding of serum SARS-yellow to linear peptides of protein X5 of SARS-CoV Urbani” value was 0.4 and the “Binding of serum SARS-yellow to looped/cyclic peptides of protein X5 of SARS-CoV Urbani” value is 0.6.
